From PMC4716659 (European journal of medicinal chemistry, 2015)
Values after ≈ are worked out from the molar mass of the structure shown.

Tests used:
[1] = tested on: methicillin-resistant Staphylococcus aureus (MRSA) ATCC 43300; assay: MIC, broth microdilution; assay type: cell-based; conditions: MRSA ATCC 43300
[2] = tested on: S. aureus NRS107 (MRSA); assay: MIC, broth microdilution; assay type: cell-based, Staphylococcus aureus; conditions: Staphylococcus aureus, MRSA|NRS107
[3] = tested on: S. aureus VRS1 (VRSA); assay: MBC, plating onto TSA; assay type: cell-based, Staphylococcus aureus; conditions: Staphylococcus aureus, VRSA
[4] = tested on: S. aureus VRS1 (VRSA); assay: MIC, broth microdilution; assay type: cell-based, Staphylococcus aureus; conditions: Staphylococcus aureus, VRSA
[5] = tested on: S. aureus USA300 (MRSA); assay: MBC, plating onto TSA; assay type: cell-based, Staphylococcus aureus; conditions: Staphylococcus aureus, MRSA|USA300
[6] = tested on: S. aureus VRS4 (VRSA); assay: MIC, broth microdilution; assay type: cell-based, Staphylococcus aureus; conditions: Staphylococcus aureus, VRSA
[7] = tested on: S. aureus VRS4 (VRSA); assay: MBC, plating onto TSA; assay type: cell-based, Staphylococcus aureus; conditions: Staphylococcus aureus, VRSA
[8] = tested on: S. aureus VRS5 (VRSA); assay: MIC, broth microdilution; assay type: cell-based, Staphylococcus aureus; conditions: Staphylococcus aureus, VRSA
[9] = tested on: S. aureus NRS19 (VISA); assay: MBC, plating onto TSA; assay type: cell-based, Staphylococcus aureus; conditions: Staphylococcus aureus, NRS19|VISA
[10] = tested on: S. aureus NRS119 (MRSA); assay: MBC, plating onto TSA; assay type: cell-based, Staphylococcus aureus; conditions: Staphylococcus aureus, MRSA|NRS119
[11] = tested on: S. aureus USA500 (MRSA); assay: MBC, plating onto TSA; assay type: cell-based, Staphylococcus aureus; conditions: Staphylococcus aureus, MRSA|USA500
[12] = tested on: S. aureus USA500 (MRSA); assay: MIC, broth microdilution; assay type: cell-based, Staphylococcus aureus; conditions: Staphylococcus aureus, MRSA|USA500
[13] = tested on: S. aureus NRS1 (VISA); assay: MBC, plating onto TSA; assay type: cell-based, Staphylococcus aureus; conditions: Staphylococcus aureus, NRS1|VISA
[14] = tested on: S. aureus NRS194 (MRSA); assay: MBC, plating onto TSA; assay type: cell-based, Staphylococcus aureus; conditions: Staphylococcus aureus, MRSA|NRS194
[15] = tested on: S. aureus VRS5 (VRSA); assay: MBC, plating onto TSA; assay type: cell-based, Staphylococcus aureus; conditions: Staphylococcus aureus, VRSA
[16] = tested on: S. aureus NRS1 (VISA); assay: MIC, broth microdilution; assay type: cell-based, Staphylococcus aureus; conditions: Staphylococcus aureus, NRS1|VISA
[17] = tested on: S. aureus USA300 (MRSA); assay: MIC, broth microdilution; assay type: cell-based, Staphylococcus aureus; conditions: Staphylococcus aureus, MRSA|USA300
[18] = tested on: human embryonic kidney (HEK293) cell line; assay: In vitro cytotoxicity, MTS assay; conditions: 40 μg/mL
[19] = tested on: S. aureus NRS19 (VISA); assay: MIC, broth microdilution; assay type: cell-based, Staphylococcus aureus; conditions: Staphylococcus aureus, NRS19|VISA
[20] = tested on: two VISA isolates; assay: MIC against VISA isolates; assay type: cell-based; conditions: Staphylococcus aureus
[21] = tested on: S. aureus USA 400 (MRSA); assay: MIC, broth microdilution; assay type: cell-based, Staphylococcus aureus; conditions: Staphylococcus aureus, MRSA|USA400
[22] = tested on: S. aureus USA 400 (MRSA); assay: MBC, plating onto TSA; assay type: cell-based, Staphylococcus aureus; conditions: Staphylococcus aureus, MRSA|USA400
[23] = tested on: S. aureus NRS37 (VISA); assay: MBC, plating onto TSA; assay type: cell-based, Staphylococcus aureus; conditions: Staphylococcus aureus, NRS37|VISA
[24] = tested on: S. aureus NRS194 (MRSA); assay: MIC, broth microdilution; assay type: cell-based, Staphylococcus aureus; conditions: Staphylococcus aureus, MRSA|NRS194
[25] = tested on: S. aureus ATCC 43300 (MRSA); assay: MBC, plating onto TSA; assay type: cell-based, Staphylococcus aureus; conditions: Staphylococcus aureus, ATCC43300|MRSA
[26] = tested on: S. aureus NRS37 (VISA); assay: MIC, broth microdilution; assay type: cell-based, Staphylococcus aureus; conditions: Staphylococcus aureus, NRS37|VISA
[27] = tested on: S. aureus NRS119 (MRSA); assay: MIC, broth microdilution; assay type: cell-based, Staphylococcus aureus; conditions: Staphylococcus aureus, MRSA|NRS119
[28] = tested on: S. aureus NRS107 (MRSA); assay: MBC, plating onto TSA; assay type: cell-based, Staphylococcus aureus; conditions: Staphylococcus aureus, MRSA|NRS107
[29] = Staphylococcus aureus, ATCC43300|MRSA

Compound: CC(=O)c1sc(-c2ccc(-c3ccc(F)cc3)cc2)nc1C [21b, 1-(2-(4′-Fluoro-[1,1′-biphenyl]-4-yl)-4-methylthiazol-5-yl)ethanone]
- MIC [1, 29]: > 39.8 µg/mL

Compound: CC(=O)c1sc(-c2ccc(-c3ccc(C(F)(F)F)cc3)cc2)nc1C [21c, 1-(4-Methyl-2-(4′-(trifluoromethyl)-[1,1′-biphenyl]-4-yl)thiazol-5-yl)ethanone]
- MIC [1, 29]: > 46.2 µg/mL

Compound: [H]/N=C(\N)NN=C(C)c1sc(-c2ccc(-c3ccc(O)cc3)cc2)nc1C [22a, (E)-2-(1-(2-(4′-Hydroxy-[1,1′-biphenyl]-4-yl)-4-methylthiazol-5-yl)ethylidene)hydrazinecarboximidamide]
- MIC [1]: >46.7 µg/mL
- MIC [1, 29]: > 36.9 µg/mL

Compound: [H]/N=C(\N)NN=C(C)c1sc(-c2ccc(-c3ccc(F)cc3)cc2)nc1C [22b, (E)-2-(1-(2-(4′-Fluoro-[1,1′-biphenyl]-4-yl)-4-methylthiazol-5-yl)ethylidene)hydrazinecarboximidamide]
- MIC [2]: 2.9 µg/mL (≈ 7.89 µM)
- MBC [3]: 2.9 µg/mL (≈ 7.89 µM)
- MIC [4]: 2.9 µg/mL (≈ 7.89 µM)
- MBC [5]: 5.9 µg/mL (≈ 16.1 µM)
- MIC [6]: 2.9 µg/mL (≈ 7.89 µM)
- MBC [7]: 2.9 µg/mL (≈ 7.89 µM)
- MIC [8]: 2.9 µg/mL (≈ 7.89 µM)
- MBC [9]: 5.9 µg/mL (≈ 16.1 µM)
- MBC [10]: 11.7 µg/mL (≈ 31.8 µM)
- MBC [11]: 5.9 µg/mL (≈ 16.1 µM)
- MIC [12]: 5.9 µg/mL (≈ 16.1 µM)
- MBC [13]: 2.9 µg/mL (≈ 7.89 µM)
- MBC [14]: 11.7 µg/mL (≈ 31.8 µM)
- MBC [15]: 2.9 µg/mL (≈ 7.89 µM)
- MIC [16]: 2.9 µg/mL (≈ 7.89 µM)
- MIC [17]: 5.9 µg/mL (≈ 16.1 µM)
- toxicity to mammalian cells (MTS assay) [18]: toxic
- MIC [19]: 5.9 µg/mL (≈ 16.1 µM)
- MIC [20]: 2.9 to 5.9 µg/mL (≈ 7.89 to 16.1 µM)
- MIC [21]: 5.9 µg/mL (≈ 16.1 µM)
- MBC [22]: 11.7 µg/mL (≈ 31.8 µM)
- MBC [23]: 5.9 µg/mL (≈ 16.1 µM)
- MIC [24]: 5.9 µg/mL (≈ 16.1 µM)
- MIC [1, 29]: 5.9 µg/mL (≈ 16.1 µM)
- MBC [25]: 5.9 µg/mL (≈ 16.1 µM)
- MIC [26]: 2.9 µg/mL (≈ 7.89 µM)
- MIC [27]: 5.9 µg/mL (≈ 16.1 µM)
- MBC [28]: 5.9 µg/mL (≈ 16.1 µM)
